Test results: patent US20220170052A1, “USE OF BACTERIOCIN-PRODUCING ETHANOLOGENS IN BIOFUEL PRODUCTION” (Wisconsin Alumni Research Foundation, priority 2016, published 2022)
Where no end group is shown, it is not given here.

Assays:
[1] = system: wild lactic acid bacteria isolated from ethanol plants; test: Sensitivity of 15 wild lactic acid bacteria isolated from ethanol plants to inhibitors in corn steep liquor broth (CSL); format: cell-based; details: share of 15 wild LAB isolates, 33° C.
Source text: Pediocin and brochocin are known to inhibit a particular range of LAB, and serve as exemplary model bacteriocins. Other bacteriocins with equal or even broader inhibition ranges may be, based on the present disclosure, synthesized and secreted in a similar manner. Table 8 compares the effectiveness of three different LAB bacteriocins against the three antibiotics most commonly utilized in the ethanol industry as well as another industry antimicrobial ingredient, hop acids. […] Fifteen strains representative of the organisms isolated from corn ethanol plants were utilized. […] The bacteriocins were utilized at either levels currently being produced (pediocin), at levels reported by others in the research literature (nisin) using commercially available preparations, or in an assay system that allows for analyzing relatively broad range of concentrations (brochocin inhibition assay by agar diffusion).

[2] = system: ethanol plant isolates (LAB); test: Growth (O.D.600) of ethanol plant isolates in corn mash extract with added pediocin; format: cell-based, lactic acid bacteria; details: Pediocin (Sigma) 500 ng/ml in corn mash extract, 37° C.
Source text: Screening LAB isolated from ethanol plants for susceptibility to pediocin or brochocin. A variety of microorganisms are known to contaminate bioethanol fermentations, however LAB, particularly lactobacilli, are of primary concern (Beckner et al., 2011). The inventors' laboratory has isolated sixty-two LAB from four ethanol plants in the Midwest region of the United States. This ethanol plant culture collection contains isolates of Lb. fermentum, Lb. plantarum, Lb. brevis, Lb. mucosae, Lb. helveticus, Lb. heilongjiangensis, Lb. amylovorous, Lb. casei, Enterococcus sp. and Pediococcus pentosaceus strains that were gathered from all stages of the ethanol fermentation process. Thirty of these cultures were propagated from frozen by sequential transfers through MRS broth and corn mash extract, a filtrate obtained from corn mash from a bioethanol plant. Pediocin (Sigma) was added at 500 ng/ml to corn mash extract, inoculated with one of the ethanol plant isolates, incubated at 37° C. and growth was monitored by following O.D.600.

## CC[C@H]1OC(=O)[C@H](C)[C@@H](O[C@H]2C[C@@](C)(OC)[C@@H](O)[C@H](C)O2)[C@H](C)[C@@H](O[C@@H]2O[C@H](C)C[C@H](N(C)C)[C@H]2O)[C@](C)(O)C[C@@H](C)C(=O)[C@H](C)[C@@H](O)[C@]1(C)O [Erythromycin]
[1]; Erythromycin 1 μg/mL
  Resistant: 7%
  Sensitive: 93%

## pediocin (KYYGNGVTCGKHSCSVDWGKATTCIINNGAMAWATGGHQGNHKC; ends and bridges not checked; cysteine pairing not given here; UniProt P29430 19-62, looked up) [Class IIa bacteriocin; commercial preparation (Sigma), used at the concentration produced by Lb. casei E3 (pNZPed+)]
[2]
  ethanol plant isolates whose growth was inhibited: five of the thirty
[1]; Pediocin 500 IU/mL
  Resistant: 67%
  Sensitive: 33%

## Virginiamycin
[1]; Virginiamycin 3 μg/mL
  Resistant: 13%
  Sensitive: 87%

## Penicillin
[1]; Penicillin 6 μg/mL
  Resistant: 33%
  Sensitive: 77%

## nisin
[1]; Nisin 500 ng/mL
  Resistant: 13%
  Sensitive: 87%
